The text below walks through data of patent publication US4443460A, “2-[4-(Diphenylmethylene)-1-piperidinyl]-acetic acids and their amides” (UCB, Societe Anonyme, priority 1980, dated 1984).

Data set [1] can be described thus: Oral toxicity LD50 in rats. The note with it: rat, in vivo. As for the experimental part:
(§1) The compounds according to the present invention have a very low toxicity. The toxicity LD50 (in mg/kg) is determined by oral administration to rats and mice. Thus, in the case of compound A, this toxicity is 1903 mg/kg in rats and 959 mg/kg in mice.

In data set [2] the test system is bronchospasms induced by histamine. As to the kind of experiment: Konzett-Roessler bronchospasm test, histamine-induced (antihistaminic activity). Format: in vivo. The settings on record: guinea pigs, i.v. As for the experimental part: (§2) These activities were measured in guinea pigs by the method of H. Konzett and R. […] Anaesthetized and curarized guinea pigs are subjected to artificial ventilation. The endotracheal pressure is recorded. Repeated bronchial spasms are induced by successive and progressive intravenous injections of respectively acetylcholine, histamine and serotonin. The test compounds are also administered intravenously.

In data set [3] the test system is respiratory spasm induced by pilocarpine. In words: pilocarpine dog test, broncholytic activity. Format: in vivo. The settings on record: dogs, i.v. As for the experimental part: Anaesthetized and curarized dogs are subjected to artificial ventilation. The endotracheal pressure is recorded. A constant respiratory spasm is induced by the continuous intravenous perfusion of pilocarpine. The test substances are also administered intravenously.

Data set [4] relates to mice. In words: General behaviour of mice (Irwin's test), tranquilization. The settings on record: male mice, intraperitoneal. In kind it is in vivo. On the procedure:
The behaviour is studied by means of Irwin's test (see S. Irwin, "General philosophy and methodology of screening: a multidimensional approach"; Gordon Research Conference on Medicinal Chemistry, Aug. 3-7, 1959, at Colby Junior College, New London).
(§3) Progressive doses of the test compounds are administered intraperitoneally to groups of three male mice (body weight 18 to 22 g) and the general behaviour of the animals is observed according to known criteria. The reference compounds used are the following:
The following Table gives the doses (in mg/kg) which induce the first manifestations of tranquilization in the animals: […]

The test system of data set [5] is bronchospasms induced by acetylcholine. As to the kind of experiment: Konzett-Roessler bronchospasm test, acetylcholine-induced. In kind it is in vivo. The settings on record: Cavia porcellus, iv, guinea pigs, i.v., read-out: dose which inhibits 50% of the induced bronchospasms, Acetylcholine. On the procedure: as §2
Data set [6] deals with passive cutaneous anaphylaxis. In words: passive cutaneous anaphylaxis test (PCA), antiallergic activity. In kind it is in vivo. The note with it: Rattus norvegicus, 0.25 h; rats, oral, allergen i.v. 15 minutes after administration; read-out: ID 50 per os (reduction of 50% of the surface area of the colored spot). As for the experimental part:
This activity is determined in rats by means of the passive cutaneous anaphylaxis test (PCA) (see J. Goose and A. M. J. N. Blair, Immunology,16,(1969),749-760; and U. Martin and D. Roemer, Arzneimittel-Forschung,28,(5), (1978),770-782).
Female rats are used, the sides of which have been partly shaved. Into the zone thus shaved there is injected intradermally, for passive sensitization of the animals, 0.05 ml of IGE antiovalbumin serum at a dilution such that, at the time of the PCA test, a distinct spot with a surface area of about 100 mm^2 appears at the point of injection.
72 Hours after the injection, 0.25 ml of a solution of allergen containing a coloring agent (5 mg of ovalbumin and 6 mg Evans Blue in 0.25 ml of a 0.9% aqueous solution of sodium chloride) is administered intravenously. At the point of intradermal injection, there appears a distinct blue spot, the surface of which is measured.
In order to test the activity of the compound according to the present invention, the procedure is carried out in the same manner; however:
the test compound is administered orally 72 hours after injection of the serum;
15 minutes after this administration, 0.25 ml of the solution of the allergen is injected intravenously;
30 minutes after the administration of the allergen, the surface of the blue spot is measured.
The following Table gives the immunological doses (ID 50 in μmol/kg) which bring about, on average of the total number of animals submitted to the test, a reduction of 50% of the surface area of the colored spot.

For data set [7], the system named is mice. The note with it: mouse, in vivo, ip. On the procedure: as §3
Furthermore, in this test, the toxicity of the compounds according to the present invention appears to be very low. This toxicity, determined by intraperitoneal administration in mice (dose which brings about the death of two animals out of three), is given in the following Table: […]

For data set [8], the system named is bronchospasms induced by serotonin. In words: Konzett-Roessler bronchospasm test, serotonin-induced. Format: in vivo. The settings on record: Cavia porcellus, iv, guinea pigs, i.v., read-out: dose which inhibits 50% of the induced bronchospasms, Serotonin. As for the experimental part:
as §2

A short description of data set [9]: Oral toxicity LD50 in mice. The settings on record: mouse, in vivo. As for the experimental part: as §1

Structures are written as SMILES.

Broadly, the LD50 is the dose at which mortality reaches 50%. A lower LD50 goes with a more toxic substance. Regarding `Cl.O=C(O)COCCOCCN1CCC(=C(c2ccccc2)c2ccccc2)CC1` [compound A, 2-[2-[2-[4-(diphenylmethylene)-1-piperidinyl]ethoxy]ethoxy]-acetic acid hydrochloride], the figures for the median lethal dose (LD50) in [1] and in [9] were 1900 mg/kg and 959 mg/kg, respectively. Besides, the ED50 in [2] (Cavia porcellus, iv, histamine-induced, read-out: dose which inhibits 50% of the induced bronchospasms, Histamine) turned out to be 2.65 mg/kg; in [5] it was 4.13 mg/kg; in [6], 133 µmol/kg; in [8], 2.56 mg/kg. Further, in data set [2] (1 mg/kg, 4 hours), the “antihistaminic activity 4 hours after injection” value is “retains this activity”. Further, the “antihistaminic activity after 90 minutes” value in data set [2] (1 mg/kg, after 90 minutes) turned out to be 100%. In addition, the “reduction of the intensity of the induced spasm” value in data set [3] (320 μg/kg) is given as 50%. In addition, the “broncholytic activity compared with theophylline (in words)” value in data set [3] (vs theophylline) is listed as “clearly superior to that of theophylline”. Also, in the data set on mice [4], the “"Tranquilizing" dose (first manifestations of tranquilization)” value came to 130 mg/kg. In the data set with mice [7], the “Toxicity (dose which brings about the death of two animals out of three)” value is 432 mg/kg.
